Experimental data published in ChEMBL document CHEMBL5149985, “Discovery of cytotoxic natural products from Red Sea sponges: Structure and synthesis” (Eur J Med Chem, 2021).
Values belong to the compound of their own block, whether it stands above or below them.

How the values were obtained:
MM1.S = experiment: Anticancer activity against human MM1.S cells assessed as cell growth inhibition by MTT assay; assay type: functional, cell-based
OVCAR-3 = experiment: Anticancer activity against human OVCAR-3 cells assessed as cell growth inhibition by crystal violet staining based assay; assay type: functional
HT-29 [1] = experiment: Anticancer activity against human HT-29 cells assessed as cell growth inhibition by crystal violet staining based assay; assay type: functional
P388 [2] = experiment: Anticancer activity against mouse P388 cells assessed as inhibition of cell growth by dilution assay; assay type: functional, cell-based
HT-29 [3] = experiment: Anticancer activity against human HT-29 cells assessed as inhibition of cell growth by dilution assay; assay type: functional, cell-based
A549 [4] = experiment: Anticancer activity against human A549 cells assessed as inhibition of cell growth by dilution assay; assay type: functional, cell-based
L5178Y [5] = experiment: Anticancer activity against mouse L5178Y assessed as cell growth inhibition by [3H]-thymidine assay; assay type: functional, cell-based
L5178Y [6] = experiment: Anticancer activity against mouse L5178Y assessed as cell growth inhibition by [3H]-thymidine assay relative to control; assay type: functional
HepG2 [7] = experiment: Anticancer activity against human HepG2 cells assessed as inhibition of cell growth incubated for 48 hrs by crystal violet staining based microplate reader analysis; assay type: functional; conditions: HepG2, 48 h
HCT-116 = experiment: Anticancer activity against human HCT-116 cells assessed as inhibition of cell growth incubated for 72 hrs by MTT assay; assay type: functional, cell-based; conditions: HCT-116, 72 h
A549 [8] = experiment: Anticancer activity against human A549 cells assessed as inhibition of cell growth incubated for 24 hrs by MTT assay; assay type: functional, cell-based; conditions: A549, 24 h
MCF7 = experiment: Anticancer activity against human MCF7 cells assessed as inhibition of cell growth incubated for 24 hrs by MTT assay; assay type: functional, cell-based; conditions: MCF7, 24 h
MDA-MB-231 = experiment: Antiproliferative activity against human MDA-MB-231 cells assessed as cell growth inhibition incubated for 72 hrs by SRB assay; assay type: functional, cell-based; conditions: MDA-MB-231, 72 h
A549 [9] = experiment: Antiproliferative activity against human A549 cells assessed as cell growth inhibition incubated for 72 hrs by SRB assay; assay type: functional, cell-based; conditions: A549, 72 h
HT-29 [10] = experiment: Antiproliferative activity against human HT-29 cells assessed as cell growth inhibition incubated for 72 hrs by SRB assay; assay type: functional, cell-based; conditions: HT-29, 72 h
Daoy = experiment: Anticancer activity against human Daoy cells assessed as inhibition of cell growth; assay type: functional, cell-based
HeLa [11] = experiment: Anticancer activity against human HeLa cells assessed as inhibition of cell growth; assay type: functional, cell-based
P388 [12] = experiment: Anticancer activity against mouse P388 cells assessed as cell growth inhibition; assay type: functional, cell-based
HT-29 [13] = experiment: Anticancer activity against human HT-29 cells assessed as cell growth inhibition; assay type: functional, cell-based
SK-MEL-28 = experiment: Anticancer activity against human MEL-28 cells assessed as cell growth inhibition; assay type: functional, cell-based
A549 [14] = experiment: Anticancer activity against human A549 cells assessed as cell growth inhibition; assay type: functional, cell-based
HeLa [15] = experiment: Anticancer activity against human HeLa cells assessed as inhibition of cell growth incubated for 24 hrs by MTT assay; assay type: functional, cell-based
HT-29 [16] = experiment: Anticancer activity against human HT-29 cells assessed as inhibition of cell growth; assay type: functional, cell-based
P388 [17] = experiment: Anticancer activity against mouse P388 cells assessed as inhibition of cell growth; assay type: functional, cell-based
A549 [18] = experiment: Anticancer activity against human A549 cells assessed as inhibition of cell growth; assay type: functional, cell-based
HepG2 [19] = experiment: Anticancer activity against human HepG2 cells assessed as inhibition of cell growth; assay type: functional, cell-based

Compound: O=C1Nc2ccc(Br)cc2[C@@]1(c1cc2ccccc2[nH]1)c1c[nH]c2ccccc12
IC50 (MM1.S): 9 µM | IC50 (OVCAR-3): 7 µM | IC50 (HT-29 [1]): 8 µM

Compound: CC(=O)O[C@H]1CC[C@]2(C)[C@H]3C[C@@H](O)[C@]4(C)C5=C(CC[C@H]4[C@]3(C)CC[C@H]2C1(C)C)COC5=O
IC50 (P388 [2]): 0.0022 µM | IC50 (HT-29 [3]): > 0.0022 µM | IC50 (A549 [4]): 0.0022 µM

Compound: CC(=O)OC[C@]1(C)CCC[C@]2(C)[C@H]3C[C@@H](O)[C@]4(C)C5=C(CC[C@H]4[C@]3(C)CC[C@@H]12)COC5=O
IC50 (P388 [2]): 0.0022 µM | IC50 (HT-29 [3]): > 0.0022 µM | IC50 (A549 [4]): 0.0022 µM

Compound: COC(=O)c1c[nH]c2ccc(O)cc12
IC50 (L5178Y [5]): 0.052 µM | inhibition (INH) (L5178Y [6]): 36%

Compound: O=Cc1c[nH]c2ccccc12 [3-FORMYLINDOLE]
IC50 (L5178Y [5]): 0.069 µM | inhibition (INH) (L5178Y [6]): 53%

Compound: CC(C)[C@@H](C)/C=C/[C@@H](C)[C@H]1CC[C@H]2C3=C(CC[C@]12C)[C@@]1(C)CC[C@H](O)CC1=CC3=O
IC50 (HCT-116): 40 µM

Compound: CC1(C)CCC[C@]2(C)[C@H]3C[C@@H](O)[C@]4(C)c5cocc5C(=O)C[C@H]4[C@]3(C)CC[C@@H]12 [SALMAHYRTISOL B]
IC50 (P388 [2]): 0.0022 µM | IC50 (HT-29 [3]): > 0.0022 µM | IC50 (A549 [4]): 0.0022 µM

Compound: C=C1CCC[C@@H]2[C@@](C)(CC[C@@]3(C)CCn4cnc5ncnc(c54)N3O)[C@H](C)CC[C@@]12C
IC50 (P388 [12]): 1.18 µM | IC50 (HT-29 [13]): 1.18 µM | IC50 (SK-MEL-28): 1.18 µM | IC50 (A549 [14]): 1.18 µM

Compound: C=C(CCC[C@@]1(C)CC[C@H]([C@@H](C)C(=O)OC)OO1)CCC1(O)C(=C)CCCC1(C)C (stereo partly drawn)
IC50 (HT-29 [16]): > 0.0024 µM | IC50 (P388 [17]): > 0.0024 µM | IC50 (A549 [18]): > 0.0024 µM

Compound: CC(C)[C@@H](C)/C=C/[C@@H](C)[C@H]1CC[C@@]23O[C@@]24C(=O)C[C@H]2CC(=O)CC[C@]2(C)[C@H]4CC[C@]13C
IC50 (HCT-116): 45 µM

Compound: CC(=O)O[C@@H]1c2occc2[C@@H](O)C[C@H]2[C@]3(C)CC[C@H]4C(C)(C)CCC[C@]4(C)[C@H]3C[C@@]21C [SALMAHYRTISOL A]
IC50 (P388 [2]): 0.0022 µM | IC50 (HT-29 [3]): > 0.0022 µM | IC50 (A549 [4]): 0.0022 µM

The next lines start with results.

IC50 (HepG2 [7]): 0.0069 µM
Compound: CC1=CCC2C(CC[C@@]2(C)O)C(C)(C)[C@@H]1CC[C@H]1[C@@](C)(O)CCC2OC(C)(C)C(=O)CC[C@@]21C (stereo partly drawn)

IC50 (A549 [8]): 24.2 µM | IC50 (MCF7): 18 µM
Compound: C#C/C=C\CCCCCCCCCCC#CCCC(=O)NCCc1ccccc1

IC50 (MDA-MB-231): 25 µM | IC50 (A549 [9]): 30 µM | IC50 (HT-29 [10]): 28 µM
Compound: O=C(O)c1cnc(-c2c[nH]c3cc(O)ccc23)c2[nH]c3ccc(O)cc3c12

IC50 (MDA-MB-231): 42 µM | IC50 (A549 [9]): 35 µM | IC50 (HT-29 [10]): 45 µM
Compound: NC(=O)c1cnc(-c2c[nH]c3cc(O)ccc23)c2[nH]c3ccc(O)cc3c12

IC50 (HeLa [11]): 0.0865 µM
Compound: O=C(O)CCCCCC#C/C=C/CCCCC#C/C=C/Br
IC50 (Daoy): 0.0658 µM

IC50 (A549 [8]): 25.9 µM | IC50 (MCF7): 34.1 µM | IC50 (HeLa [15]): 17.4 µM
Compound: C#C/C=C\CCCCCCCCCCC#CCCC(=O)NCCc1c[nH]c2ccccc12

IC50 (MDA-MB-231): 90 µM | IC50 (A549 [9]): 100 µM | IC50 (HT-29 [10]): 85 µM
Compound: COc1ccc2[nH]c3c(-c4c[nH]c5cc(O)ccc45)ncc(C(=O)O)c3c2c1

IC50 (HepG2 [19]): 0.0412 µM | IC50 (HeLa [11]): 0.0535 µM
Compound: O=C(O)CCCC#CC#C/C=C/CCCCCCC=C(Br)Br
IC50 (Daoy): 0.0356 µM
